Source: US20050282889A1, “Intracorporeal medicaments for photodynamic treatment of disease” (priority 1996, published 2005)

Assays:
[1] = Absorbance properties of halogenated xanthenes (λmax, α); type: physicochemical
Source text: Certain general properties of this class of agents are discussed in further detail in U.S. Ser. No. 09/130,041, filed on Aug. 6, 1998, U.S. Ser. No. 09/184,388, filed on Nov. 2, 1998, and U.S. Ser. No. 09/216,787, filed on Dec. 21, 1998, which are herein incorporated by reference in their entirety.

[2] = Photochemical quantum yields (triplet, singlet oxygen); type: physicochemical
[3] = Partition coefficient Kp, n-octanol / phosphate buffered saline; type: physicochemical; conditions: ratio of equilibrium concentrations, n-octanol vs PBS pH=7.4
Procedure: Kp is determined by measuring the ratio of equilibrium concentrations of an agent in a lipophilic phase (n-octanol) contacted with an aqueous phase (phosphate buffered saline, PBS, pH=7.4).

[4] = Retention of agent after intratumoral or peritumoral injection; conditions: intratumoral injection (ICG: within 24 hours)
Procedure: Initially, tumor cell suspensions (e.g. melanoma, breast tumor, liver tumor, renal carcinoma, gall bladder tumor or prostate tumor) were injected subcutaneously into the flanks of nude mice resulting in formation of primary tumors, within a few weeks, at the injection site having a volume of approximately 0.1 cm^3 to 0.5 cm^3.

Renal Adenocarcinoma = experiment: Intratumoral injection plus light, murine tumor model; type: in vivo; conditions: i.t. ICG medicament, tumor 3 × 4 × 5 mm; for No. Tumors Cured: 4 treated

O=C1OC2(c3ccccc31)c1cc(Cl)c(O)c(Cl)c1Oc1c2cc(Cl)c(O)c1Cl [2′,4′,5′,7′-Tetrachlorofluorescein]
λmax (nm) EtOH [1]: 520 nm
λmax (nm) H2O [1]: 510 nm
φ (singlet oxygen) EtOH [2]: 0.05
φ (singlet oxygen) H2O [2]: 0.05

O=C1OC2(c3cc(Cl)c(O)cc3Oc3cc(O)c(Cl)cc32)c2ccccc21 [2′,7′-Dichlorofluorescein]
λmax (nm) EtOH [1]: 511 nm
λmax (nm) H2O [1]: 502 nm
φ (singlet oxygen) EtOH [2]: 0.07
φ (singlet oxygen) H2O [2]: 0.04

O=C1OC2(c3ccc(O)cc3Oc3cc(O)ccc32)c2c(Cl)c(Cl)c(Cl)c(Cl)c21 [4,5,6,7-Tetrachlorofluorescein]
α [1]: 29000 L/cm/mol
λmax (nm) H2O [1]: 515 nm

O=C1OC2(c3ccccc31)c1ccc(O)c(Cl)c1Oc1c2ccc(O)c1Cl [4′,5′-Dichlorofluorescein]
λmax (nm) EtOH [1]: 511 nm
λmax (nm) H2O [1]: 502 nm
φ (singlet oxygen) EtOH [2]: 0.07
φ (singlet oxygen) H2O [2]: 0.04

O=C(O)c1ccccc1-c1c2cc([N+](=O)[O-])c(=O)c(Br)c-2oc2c(Br)c(O)c([N+](=O)[O-])cc12 [Eosin B]
α [1]: 39000 L/cm/mol
λmax (nm) H2O [1]: 522 nm

O=C([O-])c1ccccc1-c1c2cc(Br)c(=O)c(Br)c-2oc2c(Br)c([O-])c(Br)cc12.[Na+].[Na+] [Eosin Y]
α [1]: 91000 L/cm/mol
λmax (nm) EtOH [1]: 523 nm
λmax (nm) H2O [1]: 517 nm
λmax (nm) MeOH [1]: 527 nm
φ (singlet oxygen) EtOH [2]: 0.57
φ (singlet oxygen) H2O [2]: 0.32
φ (singlet oxygen) MeOH [2]: 0.39
φ (triplet) MeOH [2]: 0.28

O.O=C([O-])c1ccccc1-c1c2cc(I)c(=O)c(I)c-2oc2c(I)c([O-])c(I)cc12.[Na+].[Na+] [Erythrosin B]
Kp (partition coefficient) [3]: 1.9
α [1]: 91000 L/cm/mol
λmax (nm) EtOH [1]: 532 nm
λmax (nm) H2O [1]: 528 nm
λmax (nm) MeOH [1]: 529 nm
φ (singlet oxygen) EtOH [2]: 0.63
φ (singlet oxygen) H2O [2]: 0.69
φ (singlet oxygen) MeOH [2]: 0.62
φ (triplet) MeOH [2]: 0.62

CCOC(=O)c1ccccc1-c1c2cc(Br)c(=O)c(Br)c-2oc2c(Br)c([O-])c(Br)cc12.[K+] [Ethyl Eosin]
α [1]: 11000 L/cm/mol
λmax (nm) EtOH [1]: 532 nm

O=C1OC2(c3ccc(O)cc3Oc3cc(O)ccc32)c2ccccc21 [Fluorescein]
α [1]: 64000 L/cm/mol
λmax (nm) EtOH [1]: 499 nm
λmax (nm) H2O [1]: 490 nm
λmax (nm) MeOH [1]: 492 nm
φ (singlet oxygen) EtOH [2]: 0.03
φ (singlet oxygen) H2O [2]: 0.03
φ (singlet oxygen) MeOH [2]: 0.09
φ (triplet) MeOH [2]: 0.03

CC1(C)C(/C=C/C=C/C=C/C=C2\N(CCCCS(=O)(=O)O)c3ccc4ccccc4c3C2(C)C)=[N+](CCCCS(=O)(=O)[O-])c2ccc3ccccc3c21 [Indocyanine Green, reference compound]
Tissue localization after i.t. administration [4]: substantively migrated out of the tumor
Cure Rate (Renal Adenocarcinoma; No Light control, 0 J/cm^2): 0%
No. Tumors Cured (Renal Adenocarcinoma; No Light control, 0 J/cm^2): 0
Cure Rate (Renal Adenocarcinoma; 50 J/cm^2 805 nm): 0%
No. Tumors Cured (Renal Adenocarcinoma; 50 J/cm^2 805 nm): 0

O=C([O-])c1c(Cl)c(Cl)c(Cl)c(Cl)c1-c1c2cc(Br)c(=O)c(Br)c-2oc2c(Br)c([O-])c(Br)cc12.[Na+].[Na+] [Phloxine B]
Kp (partition coefficient) [3]: 1.1
α [1]: 100000 L/cm/mol
λmax (nm) EtOH [1]: 548 nm
λmax (nm) H2O [1]: 541 nm
λmax (nm) MeOH [1]: 547 nm
φ (singlet oxygen) EtOH [2]: 0.63
φ (singlet oxygen) H2O [2]: 0.40

CCN(CC)CC.CCN(CC)CC.O=C(O)c1c(Cl)c(Cl)c(Cl)c(Cl)c1-c1c2cc(I)c(=O)c(I)c-2oc2c(I)c(O)c(I)cc12 [Rose Bengal Derivative II]
φ (singlet oxygen) MeOH [2]: 0.72

CCN(CC)CC.CCOC(=O)c1c(Cl)c(Cl)c(Cl)c(Cl)c1-c1c2cc(I)c(=O)c(I)c-2oc2c(I)c(O)c(I)cc12 [Rose Bengal Derivative I]
λmax (nm) EtOH [1]: 563 nm
φ (singlet oxygen) MeOH [2]: 0.74

O=C1OC2(c3ccccc31)c1ccc(O)c(Br)c1Oc1c2ccc(O)c1Br [Solvent Red 72]
α [1]: 14000 L/cm/mol
λmax (nm) MeOH [1]: 450 nm

Dibromofluorescein
α [1]: 14000 L/cm/mol
λmax (nm) EtOH [1]: 510 nm
λmax (nm) H2O [1]: 504 nm
φ (singlet oxygen) EtOH [2]: 0.42
φ (singlet oxygen) H2O [2]: 0.32

Diiodofluorescein
α [1]: 58000 L/cm/mol
λmax (nm) EtOH [1]: 513 nm
λmax (nm) H2O [1]: 506 nm
φ (singlet oxygen) EtOH [2]: 0.48
φ (singlet oxygen) H2O [2]: 0.33
